Experimental data from patent publication US9867811B2, “Method of treating atherosclerosis in high triglyceride subjects” (NOVARTIS AG, priority 2011, dated 2018).
Read-outs that look alike come from different tables or passages of the source.

How the values were obtained:
[1] = molecular target: T1, CETP (Homo sapiens, UniProt P11597); experiment: In vitro CETP activity assay in human plasma (serum pools of differing triglyceride level); format: biochemical; conditions: human serum pool
T1 construct: Human serum samples were obtained from the Novartis Institutes for BioMedical Research donor program; tissue Novartis donor program; Bioreclamation (Westbury, N.Y.); Uniglobe (Reseda, Calif.); host or cells: pooled human donor serum
T1 sequence (P11597 18-493): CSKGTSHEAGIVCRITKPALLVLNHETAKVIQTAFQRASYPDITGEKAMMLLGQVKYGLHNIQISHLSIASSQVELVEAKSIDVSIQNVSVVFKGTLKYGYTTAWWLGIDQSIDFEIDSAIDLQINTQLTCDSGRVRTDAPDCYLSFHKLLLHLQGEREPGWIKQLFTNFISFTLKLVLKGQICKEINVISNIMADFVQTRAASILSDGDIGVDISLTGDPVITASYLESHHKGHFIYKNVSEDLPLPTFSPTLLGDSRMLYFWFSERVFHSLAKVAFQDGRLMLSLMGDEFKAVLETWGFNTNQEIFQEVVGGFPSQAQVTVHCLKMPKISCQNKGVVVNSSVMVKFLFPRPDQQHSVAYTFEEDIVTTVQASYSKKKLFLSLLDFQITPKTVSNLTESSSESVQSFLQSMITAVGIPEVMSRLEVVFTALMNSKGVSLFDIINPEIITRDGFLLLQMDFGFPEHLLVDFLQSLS
Method: Pro-apoA-1 containing microemulsion as a donor particle was prepared following previous report (J. Biol. Chem., 280:14918-22). Glyceryl trioleate (500 ug, Sigma-Aldrich, Cat. No. T7140), 3-sn-phosphatidylcholine (4680 ug, Sigma, Cat. No. P2772), and cholesteryl BODIPY FL 012 (2 mg, Invitrogen, CA, Cat. No. C-3927MP) were dissolved in 1.5 mL of chloroform. The solution was evaporated, and residual solvent was removed under vacuum for more than 1 hr at room temperature. The dried lipid mixture was dissolved in 7 ml of the assay buffer (50 mM Tris-HCl (pH 7.4) containing 150 mM NaCl and 2 mM EDTA) and sonicated in water bath for 1 hr. The solution was split into two tubes of 3.5 ml each. Each tube was sonicated at 50° C. with a microtip (MICROSON™ ULTRASONIC CELL DISRUPTOR, Misonix, Farmingdale, N.Y.) at output power 006 for 10 min (every other 25 seconds). The solution was cooled to 40° C. and 400 ug of pro-apoA-1 was added to each tube (total volume of 4 mL). Then, the solution was sonicated at output power 004 for 20 min (every other 30 seconds). Final Concentration: Glyceryl Tiroleate: 62.5 ug/ml, PC: 585 ug/ml, Bodipy CE: 250 ug/ml, Pro-apoA-1: 100 ug/ml. Centrifuge solution at 5200×g for 5 minutes and store the supernatant at 4′C.
Human serum samples were obtained from the Novartis Institutes for BioMedical Research donor program (normal triglyceride samples) or purchased from Bioreclamation (Westbury, N.Y.) or Uniglobe (Reseda, Calif.). General requirements for human serum donors included: male gender, 20-55 years of age, not currently on a lipid altering medication, non-fasting at time of blood collection, and a total cholesterol level between 200-300 mg/dL. Donor samples were selected primarily on the basis of serum triglyceride level, using the following classifications: normal triglycerides (<150 mg/dL); high triglycerides (300-500 mg/dL); and very high triglycerides (750-1200 mg/dL). A total of 4 individual serum samples from each classification were used in these experiments. For each of the 3 triglyceride classifications, two serum sample pools were prepared. The mean plasma triglyceride concentrations (mg/dL) for the pools were: Normal: 101.35; High: 347.5; Very high 1, 868.45; Very high 2, 1269.35.
Donor solution is prepared by a dilution of donor microemulsion with assay buffer (1.7 ul donor+8.3 ul Buffer). Human serum (25 μL), assay buffer (14 μL) and 50× test compound dissolved in 100% dimethylsulfoxide (1 μL) are added to each well of 384 well black, clear-bottom plate (NUNC. Thermo Fisher #242764). The reaction is started by the addition of donor solution (10 μL) into each well. Fluorescence intensities are measured every 10 min at 37° C. with excitation wave length of 485 nm and emission wavelength of 515 nm over an 80 minute period, using a SpectraMax M5 from Molecular Devices (Sunnyvale, Calif.). The CETP activity (RFU/min) is defined as the change of fluorescence intensity from 40 to 70 min. Percent CETP inhibition is calculated as follows: ((100% Act−Wellcmpnd)/100% Act))*100. IC50 values were calculated with GraphPad Prism 5 software.

[2] = test system: CETP; experiment: Ex vivo plasma CETP activity assay with exogenously added compound (maximum inhibition); format: biochemical; conditions: 10 μM, hamster plasma (80% plasma)
Method: Plasma CETP activity ex vivo was determined as followed: 50 μL of hamster plasma (final 80% plasma) was mixed with 10 μL of donor solution diluted with assay buffer composed of 50 mM Tris-HCl (pH7.4) containing 150 mM NaCl and 2 mM EDTA in a 96-well half area black flat bottom plate (Cat. No. 3686, Corning, Corning, N.Y.). Fluorescence intensity was measured every 15 min at an excitation wave length of 485 nm and an emission wavelength of 535 nm for 120 min at 37° C. using ARVO SX+L (PerkinElmer, Wellesley, Mass.). CETP activity (RFU/min) was defined as the change in fluorescence intensity from 30 to 90 min.

[3] = test system: CETP; experiment: Ex vivo CETP activity in plasma of hamsters (saline or Triton WR-1339 treated); conditions: hamster
Method: Nine- to ten-week-old, male golden Syrian hamsters were purchased from Japan SLC Inc. (Shizuoka, Japan). Animals underwent a more than 1-week acclimation period under the following conditions: 8:00/20:00 light/dark cycle, room temperature 23±2° C. […] During this time, animals received filtered (0.5 μm) water and a standard chow diet ad libitum.
Whole blood samples were collected using a heparin-washed syringe (Heparin sodium injection “Ajinomoto”; Ajinomoto, Tokyo, Japan) from the abdominal vein by venipuncture under isoflurane (Abbott Japan Co. Ltd.) inhalant anesthesia. After centrifugation at 15,000 rpm for 10 min at 4° C., heparinized plasma was prepared and stored at −80° C. until use.
CETP activity (RFU/min) was defined as the change in fluorescence intensity from 30 to 90 min.
The effect of an acute increase of plasma triglycerides in vivo (acute increase in triglyceride-rich particles) on the ability of Torcetrapib to alter plasma CETP activity, triglyceride and total cholesterol levels was investigated. Torcetrapib at doses of 3, 10 or 30 mg/kg or vehicle was administered once by gavage to hamsters fed a standard chow diet.
Compound or vehicle was administered once by gavage to hamsters fed a standard chow diet.

[4] = TG = 101.35 mg/dL (normal), read-out: CETP IC50 (nM) TG = 101.35 mg/dL
[5] = TG = 374.5 mg/dL (high), read-out: CETP IC50 (nM) TG = 374.5 mg/dL
[6] = TG = 868.45 mg/dL (very high 1), read-out: CETP IC50 (nM) TG = 868.45 mg/dL
[7] = TG = 1269.35 mg/dL (very high 2), read-out: CETP IC50 (nM) TG = 1269.35 mg/dL

| Structure (SMILES) | IC50 [1, 4] [nM] | IC50 [1, 5] [nM] | IC50 [1, 6] [nM] | IC50 [1, 7] [nM] | Maximum inhibition of CETP activity, compound exogenously added, Triton WR-1339 group ([2]; Triton WR-1339 group) [%] | Maximum inhibition of CETP activity, compound exogenously added, saline group ([2]; saline group) [%] | Inhibition of CETP activity, lower dose group, Triton WR-1339 group ([3]; oral gavage: Torcetrapib 5 mg/kg, Anacetrapib 1.5 mg/kg, Example 49 1.5 mg/kg, Example 8 0.75 mg/kg, Triton WR-1339 100 mg/kg i.v., not significant vs vehicle) [%] | Inhibition of CETP activity, lower dose group, saline group ([3]; oral gavage: Torcetrapib 5 mg/kg, Anacetrapib 1.5 mg/kg, Example 49 1.5 mg/kg, Example 8 0.75 mg/kg, saline i.v.) [%] | Inhibition of CETP activity, higher dose group, Triton WR-1339 group ([3]; oral gavage: Torcetrapib 10 mg/kg, Anacetrapib 3 mg/kg, Example 49 3 mg/kg, Example 8 1.5 mg/kg, Triton WR-1339 100 mg/kg i.v.) [%] | Inhibition of CETP activity, higher dose group, saline group ([3]; oral gavage: Torcetrapib 10 mg/kg, Anacetrapib 3 mg/kg, Example 49 3 mg/kg, Example 8 1.5 mg/kg, saline i.v.) [%] |
| --- | --- | --- | --- | --- | --- | --- | --- | --- | --- | --- |
| CCN(C[C@H]1CC[C@H](CC(=O)O)CC1)c1ccc(C(F)(F)F)cc1CN(c1ncc(OCCS(C)(=O)=O)cn1)[C@H](C)c1cc(C(F)(F)F)cc(C(F)(F)F)c1 [Example 57B] | 669 | 1300 | 2300 | 2700 |  |  |  |  |  |  |
| CCN(C[C@H]1CC[C@H](CC(=O)O)CC1)c1ccc(C(F)(F)F)cc1CN(c1ncc(OCCS(C)(=O)=O)cn1)[C@@H](C)c1cc(C(F)(F)F)cc(C(F)(F)F)c1 [Example 57A] | 301 | 155 | 91.7 | 29.4 |  |  |  |  |  |  |
| CC[C@@H]1C[C@H](N(Cc2cc(C(F)(F)F)cc(C(F)(F)F)c2)c2ncc(-c3cnn(C)c3)cn2)C[C@H](CC)N1C(=O)O[C@H]1CC[C@H](C(=O)O)CC1 [Example 19] | 71.9 | 116 |  | 540 |  |  |  |  |  |  |
| Cc1cc(C)c2c(c1)[C@@H](N(Cc1cc(C(F)(F)F)cc(C(F)(F)F)c1)c1nnn(C)n1)CCCN2C[C@H]1CC[C@H](C(=O)O)CC1 [Example 53] | 48.7 | 49.8 | 54.4 | 92.3 |  |  |  |  |  |  |
| CCN(C[C@H]1CC[C@H](CC(=O)O)CC1)c1cc(C)c(C(F)(F)F)cc1CN(Cc1cc(C(F)(F)F)cc(C(F)(F)F)c1)c1nnn(C)n1 [Example 58] | 82.2 | 151 | 280 | 372 |  |  |  |  |  |  |
| Cn1nnc(N(Cc2cc(C(F)(F)F)cc(C(F)(F)F)c2)Cc2cc3cc(F)c(F)cc3nc2N2CCC[C@@H]2[C@H]2CC[C@H](C(=O)O)CC2)n1 [Example 49] | 22.1 | 42.7 | 37.1 | 46.4 | ~100 | ~100 | 26 | 63 | 38 | 77 |
| CC[C@@H]1C[C@H](N(Cc2cc(C(F)(F)F)cc(C(F)(F)F)c2)c2ncc(-c3cnn(C)c3)cn2)C[C@H](CC)N1C(=O)O[C@H]1C[C@H](C(=O)O)C1 [Example 17] | 114 | 62.7 | 40.2 | 29.6 |  |  |  |  |  |  |
